In publication PMC12735718, “Novel Adamantane–Sclareol Hybrids Exploit ROS Vulnerability to Overcome Multidrug-Resistance in Glioblastoma Cells” (Molecules, 2025):

Experiments:
[1] = tested on: intracellular superoxide anion in U87 and U87-TxR cells; assay: Superoxide anion detection by DHE; assay type: cell-based, human; details: 4 µM, 24 h and 48 h
Protocol: The levels of ROS were measured in U87 and U87-TxR cells by flow cytometry. The production of superoxide anions was detected using DHE fluorescence dye, while production of H2O2 and peroxynitrite anions was detected using DHR fluorescence dye. Cells were seeded in 6-well plates (150,000 cell/well) and incubated overnight. The cells were then treated with compounds 2 or 5 (4 μM) for 24 h and 48 h. CDDP (10 μM) was used as a positive control. After the treatment period, the cells were stained with DHE or DHR for 30 min in the dark. Following incubation, cells were harvested with trypsinization and washed twice in cold phosphate buffer solution (PBS). Fluorescence was measured on a CytoFlex flow cytometer (Beckman Coulter, Indianapolis, IN, USA). Green fluorescence from the oxidized DHR dye was detected at 525 nm, while the red fluorescence from ethidium derived from DHE was detected at 585 nm. At least 10,000 events were assayed for each sample. The results were analyzed by CytExpert 2.4.0.28 software (Beckman Coulter, Indianapolis, IN, USA).

[2] = tested on: TrxR (SH-SY5Y cell lysate); assay: Colorimetric detection of cell lysate TrxR activity (DTNB); assay type: biochemical, human; details: 50 µM, DTNB absorbance at 412 nm over 20 min
Excerpt: We further analyzed the potential of adamantane–sclareol hybrids to inhibit TrxR enzyme activity using a colorimetric assay for the detection of TrxR activity in cell lysates. This kinetic assay is based on the ability of TrxR to reduce its substrate 5,5ʹ-dithiobis(2-nitrobenzoic acid) (DTNB) to the yellow product 5-thio-2-nitrobenzoic acid (TNB) in the presence of NADPH. The absorbance of the produced TNB is considered equivalent to the enzymic activity of TrxR. In the kinetic assay, the absorbance of DTNB was measured over 20 min, resulting in a curve showing the dependence of absorbance on time.
TrxR enzyme activity in cell lysate was determined by the reduction of the TrxR substrate DTNB to the yellow product TNB in the presence of NADPH (Acros Organics, Thermo Fisher Scientific, Waltham, MA, USA). Lysate from human neuroblastoma SH-SY5Y cells was used for the TrxR assay. SH-SY5Y cells were grown to 80% confluence, washed twice with PBS, and detached using Hanks-based enzyme-free dissociation solution (Millipore, Billeri-ca, MA, USA). Collected cells were centrifuged at 2000 rpm for 3 min and rinsed in PBS buffer. After additional centrifugation, cells were lysed on ice using Lysis Buffer (50 mM Tris, 150 mM NaCl, 1 mM EDTA, 1% NP40, 0.1% SDS, 0.5% Na-deoxycholate, pH 7.8) containing protease inhibitor mix G (SERVA Electrophoresis GmbH, Heidelberg, Germany) and phosphatase inhibitor cocktail 3 (Sigma-Aldrich, Darmstadt, Germany). The cell lysates were centrifuged at 16,000× g for 15 min at 4 °C. The protein concentrations of the supernatants were determined using a Pierce^TM BCA protein assay kit (Thermo Fisher Scientific, Waltham, MA, USA). The reactions were run in 96-well plates, in a final volume of 100 μL, in 50 mM potassium phosphate buffer (pH 7.0) containing 50 μg of cell lysate proteins, 1 mM EDTA, 50 mM KCl, 0.2 mg/mL BSA, and 0.25 mM NADPH. […] Enzyme kinetics were monitored on an automated microplate reader (MultiskanSky, Thermo Fisher Scientific, Waltham, MA, USA) by measuring the increase in absorbance at 412 nm for 20 min. […]

[3] = tested on: TrxR1 protein in U87-TxR cells; assay: TrxR1 protein expression by flow cytometry, U87-TxR; assay type: cell-based, human; details: 48 h; for protein level of TrxR1: 2 µM and 4 µM
Protocol: Flow cytometry was used to assess TrxR1 and ASK1 protein expression in the U87 and U87-TxR cell lines. Cells were seeded and allowed to attach overnight before exposure to compounds 2 and 5 at final concentrations of 2 μM and 4 μM. After 48 h treatment, cells were collected by trypsinization, rinsed with PBS, and subsequently fixed in 4% PFA for 10 min at room temperature. For permeabilization, ice-cold absolute methanol was added, and the samples were maintained at −20 °C overnight. Following this step, cells were washed in PBS and incubated for 1 h in 0.5% BSA/PBS to block nonspecific binding. Pelleted cells were then resuspended in primary antibodies diluted in 0.5% BSA/PBS [(ASK1, 1:200 (ab45178, Abcam, Cambridge, UK); TrxR1, 1:500 (ab124954, Abcam, Cambridge, UK)] and incubated overnight at +4 °C. Cells were then washed in PBS and incubated for 1 h at room temperature in the dark with fluorescently labeled anti-rabbit IgG secondary antibody (Alexa Fluor 488, ab150097, Abcam, Cambridge, UK), diluted 1:1000 in 0.5% BSA/PBS. Following incubation, samples were washed, resuspended in cold PBS, and analyzed by flow cytometry. A minimum of 10,000 events per sample were acquired, and fluorescence was detected in a green fluorescence channel (525 nm). Data acquisition and processing were performed using CytExpert software (version 2.4.0.28; Beckman Coulter, Indianapolis, IN, USA).

U87-TxR cells = assay: Cell death detection, AV/PI staining, U87-TxR; assay type: cell-based, human; details: 48 h; for cell death effect in MDR U87-TxR cells vs sensitive U87 cells: 4 µM, AV/PI; for percentage of early apoptotic cells vs untreated: 2 µM and 4 µM, particularly at 4 µM
Protocol: To evaluate the extent of cell death upon treatment with adamantane–sclareol hybrids, apoptotic, necrotic, and viable cell populations were assessed using dual staining with AV/PI. U87 and U87-TxR cells were seeded in 6-well plates at a density of 150,000 cells per well and incubated overnight. Subsequently, cells were treated with 2 and 5 (2 µM and 4 µM) for 48 h. At the end of the treatment period, cells were collected (both adherent and floating), washed, and incubated with AV/PI in binding buffer. Samples were analyzed using a CytoFLEX flow cytometer (Beckman Coulter, Indianapolis, IN, USA), with fluorescence signals detected at 525 nm (AV) and 585 nm (PI). At least 10,000 events were recorded per each condition. The percentages of viable (AV^− PI^−), early apoptotic (AV^+ PI^−), late apoptotic (AV^+ PI^+), and necrotic (AV^− PI^+) cells were calculated using CytExpert 2.4.0.28 software (Beckman Coulter, Indianapolis, IN, USA).

## CC1(C)CCC[C@]2(C)[C@@H](CC[C@@](C)(O)/C=C/c3ccc(CNCCCCCCCCNCC45CC6CC(CC(C6)C4)C5)s3)[C@](C)(O)CC[C@@H]12 [Compound 2]
[1]
  intracellular superoxide anion levels (DHE): no significant changes
[2]
  TrxR enzyme activity: do not inhibit TrxR enzyme activity
[3]
  protein level of TrxR1: significantly increased
U87-TxR cells
  cell death effect in MDR U87-TxR cells vs sensitive U87 cells: significantly better effects in MDR U87-TxR cells
  percentage of early apoptotic cells vs untreated: significant increase

## CC1(C)CCC[C@]2(C)[C@@H](CC[C@@](C)(O)/C=C/c3ccc(CNCCCCCCCCNCC45CC6CC(CC(C6)C4)C5)o3)[C@](C)(O)CC[C@@H]12 [Compound 5]
[1]
  intracellular superoxide anion levels (DHE): no significant changes
[2]
  TrxR enzyme activity: do not inhibit TrxR enzyme activity
[3]
  protein level of TrxR1: significantly increased
[3]; 4 µM, relative to untreated control
  increase in TrxR1 level: 69%
U87-TxR cells
  cell death effect in MDR U87-TxR cells vs sensitive U87 cells: significantly better effects in MDR U87-TxR cells
  percentage of early apoptotic cells vs untreated: significant increase
U87-TxR cells; untreated cells 4.17%, Figure S3
  early apoptotic population (AV+ PI−): 32.6%
